“And” between values parts separate entries of the source, which are not always exact repeats. Identical values can stand only once.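 Compound exposure: 48 hours, 5 concentrations, 96-well plates. Here, GI50 denotes the concentration required for 50% inhibition of growth. TGI is the concentration that stops growth completely.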
Columns and labels:
Assay in all cases: NCI tumour cell line growth inhibition, 48 h
786-0 renal = system: 786-0 renal
HCT-116 colon = system: HCT-116 colon
SK-OV-3 ovarian = system: SK-OV-3 ovarian
A498 renal = system: A498 renal
HOP-18 NSCLC = system: HOP-18 NSCLC
SK-MEL-5 melanoma = system: SK-MEL-5 melanoma
HCC-2998 colon = system: HCC-2998 colon
MDA-MB-435 = system: MDA-MB-435
NCI/ADR-RES ovarian = system: NCI/ADR-RES ovarian
DMS 273 small cell lung = system: DMS 273 small cell lung

Compound | TGI (786-0 renal) | TGI (HCT-116 colon) | TGI (SK-OV-3 ovarian) | GI50 (A498 renal) | TGI (A498 renal) [µM] | GI50 (HOP-18 NSCLC) | TGI (HOP-18 NSCLC) | TGI (SK-MEL-5 melanoma) | GI50 (HCC-2998 colon) [µM] | TGI (HCC-2998 colon) [µM] | TGI (MDA-MB-435) [µM] | TGI (NCI/ADR-RES ovarian) [µM] | GI50 (786-0 renal) [µM] | GI50 (HCT-116 colon) [µM] | GI50 (SK-OV-3 ovarian) [µM] | GI50 (MDA-MB-435) [nM] | GI50 (SK-MEL-5 melanoma) [µM] | GI50 (NCI/ADR-RES ovarian) [µM] | GI50 (DMS 273 small cell lung) [µM] | TGI (DMS 273 small cell lung) [µM]
NC(Cc1ccccc1)C(=O)OCN1C(=O)C2C3C=CC(C2C1=O)C1C2C(=O)N(COC(=O)C(N)Cc4ccccc4)C(=O)C2C31 (stereo not drawn) | 38.2 µM and 38 µM | 33.9 µM and 46.2 µM | > 100 µM and 78.9 µM | > 100 µM and 46 µM | > 100 | 45.3 µM and 20 µM | > 100 µM and 52.1 µM | 34.4 µM and 32.9 µM | 55.4 | > 100 | – | – | – | – | – | – | – | – | – | –
C=C1CCC2CC1C(C(=O)c1c[nH]c3ccccc13)=NC2(C)C (stereo not drawn) | > 100 µM | > 100 µM | > 100 µM | – | > 100 | – | – | > 100 µM | – | > 100 | > 100 | > 100 | – | – | – | – | – | – | – | –
CN1CCN(CCCOc2cccc3nc(Nc4cc(Cl)cc(Cl)c4)ccc23)CC1 | 2.94 µM | 3.47 µM | 3.3 µM | 1.78 µM | 3.51 | – | – | 3.75 µM | 1.64 | 3.17 | 3.2 | 3.29 | 1.49 | 1.94 | 1.76 | 1680 | 1.93 | 1.72 | – | –
C[C@H]1CCC/C=C/C2CC(OC(=O)CN(C)C)CC2C(OC(=O)CN(C)C)/C=C/C(=O)O1 (stereo partly drawn) | – | 16.7 µM | – | 0.0508 µM | 0.282 | – | – | 0.243 µM | 0.215 | 0.537 | > 100 | – | 0.107 | 0.762 | 0.237 | 408 | 0.0982 | – | 3.77 | 27.7
C=CC(=O)N[C@@H]1CN(c2nc(Nc3cn(C)nc3OC)c3ncn(C)c3n2)C[C@H]1F | > 100 µM | > 100 µM | > 47.2 µM | 16.4 µM | 67.7 | – | – | > 59.8 µM | 47.8 | > 100 | 38.5 | > 100 | 28.1 | 27.3 | 0.0881 | 15800 | 24.8 | > 100 | – | –
CC(C)N(C(=O)C12C3C4C1C1C2C3C41C(=O)C(C)(C)C)C(C)C (stereo not drawn) | > 100 µM | > 100 µM | > 100 µM | – | > 100 | – | – | > 100 µM | – | > 100 | – | – | – | – | – | – | – | – | – | > 100
Cc1c2cnccc2c(C)c2c1c1cc(O)ccc1n2C(C)C | 4.53 µM | 6.56 µM | 5.55 µM | 2 µM | 13.3 | – | – | 3 µM | 1.55 | 4.94 | 2.29 | 4.23 | 1.7 | 0.964 | 0.709 | 1040 | 1.35 | 1.14 | – | –
CC(C)C[C@H](CC(=O)O)C(=O)N[C@@H](Cc1c[nH]c2ccccc12)C(=O)N[C@@H](C)c1ccccc1 | > 25 µM | > 25 µM | > 25 µM | > 25 µM | > 25 | – | – | > 25 µM | > 25 | > 25 | > 25 | > 25 | > 25 | > 25 | > 25 | > 25000 | > 25 | > 25 | – | –
Cc1cccc2c(C3=C(c4cn(C)c5ccccc45)C(=O)NC3=O)cn(C)c12 | > 25 µM | > 25 µM | > 25 µM | > 25 µM | > 25 | – | – | > 25 µM | > 25 | > 25 | > 25 | > 25 | > 22.1 | > 15.8 | > 22.5 | 1240 | > 22.2 | > 19.6 | – | –
O=C(NC1CCN(Cc2ccccc2)CC1)c1cc(-c2cccnc2)nc2ccc(Cl)cc12 | 17.7 µM | 26.4 µM | 42.7 µM | – | 5.49 | – | – | > 100 µM | 5.51 | > 100 | > 100 | > 100 | 4.63 | 5.47 | 14.1 | 9960 | 3.91 | 15.6 | – | –
CCn1cnc(C[C@H](NC(=O)[C@H](CCCCNC(=O)Nc2cc(C(F)(F)F)cc(C(F)(F)F)c2)NC(=O)Nc2cc(C(F)(F)F)cc(C(F)(F)F)c2)C(=O)OC)c1 | > 10 µM | > 10 µM | > 10 µM | > 10 µM | > 10 | – | – | > 10 µM | 3.98 | > 10 | > 10 | > 10 | 8.78 | 3.87 | > 10 | 8460 | 7.75 | > 10 | – | –
CC(Oc1cc2oc(=O)cc(-c3ccccc3)c2cc1Cl)C(=O)O (stereo not drawn) | > 100 µM | > 100 µM | > 100 µM | – | > 100 | – | > 100 µM | > 100 µM | – | > 100 | – | – | – | – | – | – | – | – | – | –
Cc1cc(F)c(C(=O)Nc2cccc(-c3nncn3C(C)C)n2)cc1-n1cnc(C2CC2)c1 | > 100 µM | > 100 µM | > 100 µM | 14.2 µM | 62.6 | – | – | 23.6 µM | 14.3 | > 100 | > 100 | 93.2 | 17.1 | 8.25 | 24.5 | 11400 | 11.3 | 17.7 | – | –
N#CCc1c(F)c(F)c(F)c(F)c1F | > 100 µM | > 100 µM | > 100 µM | – | > 100 | – | – | > 100 µM | – | > 100 | > 100 | > 100 | – | – | – | – | – | – | – | –
Oc1ccc2ccccc2c1CCc1c(O)ccc2ccccc12 | 34.9 µM | 25.1 µM | 29.4 µM | – | 38.2 | – | – | 25.7 µM | – | 21.8 | 25.4 | 31.1 | – | – | – | – | – | – | – | –
N#Cc1ncc(C(Cl)Cl)nc1Cl | 3.16 µM | 3.04 µM | > 10 µM | – | > 10 | – | – | 3.35 µM | – | 3.06 | 3.9 | 5.38 | – | – | – | – | – | – | – | –
O=c1cc(-c2ccc(Cl)cc2)[nH]c2ccccc12 | > 100 µM | > 100 µM | > 100 µM | 51.6 µM | > 100 | – | – | > 100 µM | > 100 | > 100 | 28.5 | > 100 | 64.8 | 32.5 | 44.8 | 2890 | 26.7 | 27.1 | – | –

From PubChem BioAssay (NCI)
